In series [1] the test system is mice on high fat, high cholesterol, high sugar diet. Description: preclinical NASH model: diet enriched in trans fat, cholesterol and fructose for 19 weeks. The series is classed as in vivo. On the procedure: Mice were fed a diet enriched in trans fat, cholesterol and fructose for 19 weeks to induce hepatic damage, which was assessed by histological changes in the NAS and fibrosis, measured by trichrome staining for collagen. MSDC-0602K (30 mg/kg) was given at either four weeks into the treatment or 16 weeks into the treatment as compared to the vehicle treated mice who were also on the modified diet. The results of mice who were kept on the normal diet are included for comparison. […] The signals for activation of the stellate cells and fibrosis are attenuated by treatment of the mice or isolated hepatocytes with MSDC-0602K.

Series [2] deals with subjects with biopsy proven NASH with fibrosis and no cirrhosis. Description: EMMINENCE Phase 2b clinical trial, interim analysis at six months. Type of series: in vivo, humans. As to conditions: for peripheral edema present at 6 months: placebo 12.50%; for percentage of patients with high baseline ALT who returned to normal range: placebo 15%; for percentage of patients with high baseline AST who returned to normal range: placebo 20%. From the text:
Detailed Description: This is a randomized, double-blinded study of three doses of MSDC-0602K or placebo given orally once daily to subjects with biopsy proven NASH with fibrosis and no cirrhosis. Visits to the clinic will be at baseline, 1, 2, 3, 6, 9, and 12 months, with one 2-week follow-up visit. Safety will be assessed by monitoring of vital signs, 12 lead electrocardiogram (ECG), physical examinations, safety labs, and adverse events (AEs).
An interim analysis of the EMMINENCE Phase 2b trial was conducted in the first 328 subjects who reached their six-month follow-up visit. […] In the two highest dose groups, at least 50% of patients with elevated baseline Alanine transaminase (ALT) or Aspartate Aminotransferase (AST) improved into the normal range at six months, as shown in Table 3.
The subjects included in this interim analysis had significant liver disease, as established by liver biopsy, with an average NAS at baseline of 5.3. […] Overall, baseline characteristics were well-balanced across treatment groups.

Series [3] has as its system stellate cells in 3-dimensional bioprinted human liver organoids. Description: 3-dimensional bioprinted human liver organoids in medium with high sugars and fatty acid, collagen staining. As to conditions: added to the tissue medium with high concentrations of sugars and fatty acid. The series is classed as cell-based.
Series [4] relates to cell functions and key regulatory proteins. In words: impact of MSDC-0602K vs overnutrition on cell functions and key regulatory proteins (Table 1).
Series [5] is described as follows: preclinical toxicology, six- and twelve-month animal studies. The series is classed as in vivo.
In series [6] the test system is diet-induced obese WT (fl/fl) and LS-MPC2−/− mice. In words: single dose in diet-induced obese (60% HF diet) WT and LS-MPC2−/− mice: GTT, plasma insulin, plasma ALT, liver qPCR. To be noted: for glucose tolerance (GTT): vs vehicle. Type of series: in vivo. Here is the method:
8 week old WT and LS-MPC2−/− mice were fed a diet of 60% fat (Research Diets D12492) for 20 weeks to induce obesity and insulin resistance. Intraperitoneal glucose tolerance tests (GTT) were performed after a 4 h fast by injection of 1 g/kg D-glucose in saline i.p. to assess glucose tolerance. 3 days after the initial GTT, mice were randomized to receive a single gavage of either vehicle (1% CMC, 0.01% Tween-80) or 30 mg/kg MSDC-0602K. Plasma insulin was measured by Singulex assay and plasma ALT levels were measured by commercially-available kits (Teco Diagnostics). qPCR was performed by isolation of total RNA with RNA-Bee and reverse transcription with a high-capacity cDNA synthesis kit (Invitrogen). qPCR was performed on an Applied Biosystems real-time thermocycler.
(In qPCR the cycle at which signal appears reflects the starting amount.)

A short description of series [7]: exposure and bioavailability of MSDC-0602, its metabolite and the potassium salt. The series is classed as in vivo. To be noted: parent plus metabolite exposure.
The target of another series is T1, PPARγ (Homo sapiens, UniProt P37231).
T1 sequence (P37231 1-505): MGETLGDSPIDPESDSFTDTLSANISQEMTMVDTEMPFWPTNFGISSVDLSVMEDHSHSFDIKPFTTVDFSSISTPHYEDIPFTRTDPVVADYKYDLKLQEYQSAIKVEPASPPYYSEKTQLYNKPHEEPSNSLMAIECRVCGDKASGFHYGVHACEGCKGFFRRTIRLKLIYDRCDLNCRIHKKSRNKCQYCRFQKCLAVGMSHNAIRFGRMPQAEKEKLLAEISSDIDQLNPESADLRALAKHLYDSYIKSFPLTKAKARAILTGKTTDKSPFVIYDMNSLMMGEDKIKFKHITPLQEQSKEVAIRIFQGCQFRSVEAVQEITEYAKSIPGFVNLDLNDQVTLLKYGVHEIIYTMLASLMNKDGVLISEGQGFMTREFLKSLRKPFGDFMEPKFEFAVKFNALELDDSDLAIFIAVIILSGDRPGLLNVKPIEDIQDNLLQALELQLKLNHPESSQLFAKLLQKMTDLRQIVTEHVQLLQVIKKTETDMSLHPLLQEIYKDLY
Description: relative binding affinities with PPARγ. As to conditions: FIG. 15 as printed (legend: FIG. 7).

Series [8] concerns the target T2, MPC (mitochondrial pyruvate carrier) (Homo sapiens, UniProt O95563+Q9Y5U8).
T2 sequence (Q9Y5U8 1-109): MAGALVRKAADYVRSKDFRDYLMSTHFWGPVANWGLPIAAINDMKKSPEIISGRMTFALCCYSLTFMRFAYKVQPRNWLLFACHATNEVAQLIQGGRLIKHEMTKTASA
T2 sequence (O95563 1-127): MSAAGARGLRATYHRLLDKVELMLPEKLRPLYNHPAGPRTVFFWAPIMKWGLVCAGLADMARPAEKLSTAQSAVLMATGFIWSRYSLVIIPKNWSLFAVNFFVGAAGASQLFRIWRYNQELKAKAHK
Description: relative binding affinities with the MPC. To be noted: FIG. 16 as printed (legend: FIG. 8); relative to rosiglitazone and pioglitazone.

For series [9], the system named is WT mice on HTF-C diet (mouse model of NASH). In words: NASH (HTF-C) diet plasma RNA experiments: serum miRNA sequencing. Type of series: in vivo. As to conditions: HTF-C diet 4 or 16 weeks, then HTF-C diet containing 331 ppm. Here is the method:
To begin evaluating the exosome cargo of MSDC-0602K-treated mice, WT mice were fed with either a low fat (LF) control diet (Research Diets D09100304) or high trans-fat, fructose, cholesterol (HTF-C) diet composed of 40% trans-fat, 20% fructose, 2% cholesterol (Research Diets D09100301).
Total RNA was isolated from 400 μL of serum and small RNA sequencing was performed by adapter ligation, cDNA synthesis and size selection of 145-160 base pairs. Sequencing was then performed on an Illumina HiSeq3000.

A further series has as its system healthy volunteers. Description: three Phase 1 clinical trials in 126 healthy volunteers, safety. Type of series: in vivo, humans. As to conditions: Phase 1, healthy volunteers.
Series [10] is described as follows: clinical pharmacokinetics (Phase 1 cross-over trials, Phase 2a trial). As to conditions: human, in vivo; humans, oral.

The results in this text go back to US20220031667A1, “THIAZOLIDINEDIONE ANALOGS FOR THE TREATMENT OF NAFLD AND METABOLIC DISEASES” (Cirius Therapeutics, Inc., priority 2019, published 2022).

Molecules are shown by their SMILES. “Also recorded” adds a separate entry of the source.

Regarding `COc1cccc(C(=O)COc2ccc(CC3SC(=O)NC3=O)cc2)c1` (centres unmarked) [MSDC-0602K], the “signals for activation of the stellate cells and fibrosis” value in [1] (30 mg/kg from week 4 or week 16 of a 19 week diet, mice or isolated hepatocytes) is reported as “attenuated”. Further, in series [2] (62.5 mg (n = 81), baseline 13.60%), the “peripheral edema present at 6 months” value is 7.80%. Also, in series [2] (62.5 mg, six months), the “percentage of patients with high baseline ALT who returned to normal range” value came out at 29% and the “percentage of patients with high baseline AST who returned to normal range” value is on record as 36%. Besides, the “peripheral edema present at 6 months” value in [2] (125 mg (n = 84), baseline 13.10%) was found to be 13.50%. Besides, in series [2] (125 mg once daily, p<0.001), the “placebo-corrected reduction in ALT at six months” value worked out at 14.3 U/L. Also, in series [2] (125 mg once daily, p=0.012), the “placebo-corrected reduction in AST at six months” value is recorded as 7.9 U/L. Further, in series [2] (125 mg, six months), the “percentage of patients with high baseline ALT who returned to normal range” value is 60% and the “percentage of patients with high baseline AST who returned to normal range” value is reported as 50%. In series [2] (250 mg (n = 85), baseline 9.40%), the “peripheral edema present at 6 months” value was 11.10%. The “placebo-corrected reduction in AST at six months” value in [2] (250 mg once daily, not significant) is recorded as 4.0 U/L. Besides, the “placebo-corrected reduction in ALT at six months” value in [2] (250 mg once daily, p=0.004) is given as 10.6 U/L. For the same compound, in series [2] (250 mg, six months), the “percentage of patients with high baseline ALT who returned to normal range” value was 56% and the “percentage of patients with high baseline AST who returned to normal range” value is reported as 52%. For the same compound, the HbA1c result in [2] (Type II diabetes subjects, all doses) is given as “statistically significant improvement”. In addition, in series [2] (all MSDC-0602K dose cohorts, six months), the “HOMA-IR and HbA1c” value is “Statistically significant reductions”. Also, the “fasting glucose, HbA1c, insulin levels, and HOMA-IR” value in [2] (all subjects, six months, 125 mg and 250 mg doses) is on record as “statistically significant improvements”. For the same compound, in series [2] (all treatment cohorts, dose dependent), the Adiponectin result was “increased significantly”. Also, the “liver enzymes, including ALT and AST, at six months compared to baseline” value in series [2] (first 328 subjects) is recorded as “statistically significant reductions”. Besides, in series [2] (overall), the lipids entry is recorded as “neutral effect”. Further, in series [2] (reported in fourteen subjects, blinded across cohorts), the “treatment emergent serious adverse events” value was “none of which were determined by the investigator to be drug-related”. In addition, in series [2] (six months), the “additional biomarkers of fibrosis such as hematocrit” value is “trends for improvement”; the “bilirubin, alkaline phosphatase, and gamma GT liver enzymes” value was “Improvements”. Moreover, the “patients with elevated baseline ALT or AST improved into the normal range at six months” value in series [2] (two highest dose groups (125 mg, 250 mg)) is reported as “at least 50%”. In addition, the “C-Reactive Protein levels” value in [2] (two lowest doses) was “decrease”. For the same compound, the “nutrient-induced stellate cell activation and fibrosis (staining for collagen)” value in [3] is “both prevented and reversed the effects of the nutrients”. For the same compound, in series [4], the “Fatty acid oxidation (burning fat)” value is “Increased”, the “HIF1α (transcription factor responding to oxygen)” value was “Decreased”, the “Inflammation (ballooning due to injury)” value is “Decreased” and the “Insulin sensitivity (cellular response to insulin)” value is listed as “Increased”. In series [4], the “PPARγ, PPARα (transcription factors regulating fat metabolism and inflammation)” value was “Increased”; the “SREBP (transcription factor regulating fat synthesis)” value is reported as “Decreased”; the “de novo lipid synthesis (making new fat)” value is given as “Decreased”; the “mTORC1 (important nutrient sensor)” value is “Decreased”. Besides, the “safety findings in toxicological profile” value in series [5] (doses up to seven-fold the currently used clinical dose equivalents) was “free acid, have been characterized and no significant safety findings”. Besides, the safety and tolerability in series [5] (six- and twelve-month preclinical animal studies) is 0602K, MSDC-0602K was found to be safe and well-tolerated. Also, the “glucose tolerance (GTT)” value in series [6] (obese WT mice, GTT 20 h after a single gavage of 30 mg/kg, 30 mg/kg) is “improves glucose tolerance”.
Take `COc1cccc(C(O)COc2ccc(CC3SC(=O)NC3=O)cc2)c1` (centres unmarked) [primary metabolite of MSDC-0602]: the “share of the combined exposure” value in series [7] is reported as “more than 90%”. For the same compound, on PPARγ, the “reduction in binding affinity for PPARγ compared to pioglitazone” value is given as “more than fifty-fold reduction”. For the same compound, the “binding to the MPC” value in series [8] was “maintain, and in some cases improve, binding to the MPC”.
As usually defined, the half-life is the time needed for the level to fall by half in the phase considered. For `COc1cccc(C(=O)COc2ccc(CC3SC(=O)NC3=O)cc2)c1` (centres unmarked) [MSDC-0602], the “protection against the high fat, high cholesterol, high sugar diet representative of NASH disease” value in [1] (multiple animal models of NASH) is given as “has been shown to protect”. The “serum miRNAs altered by HTF-C diet” value in series [9] is on record as “largely corrected”. The “most commonly reported adverse events” value in the series with healthy volunteers is “commonly reported adverse events with MSDC-0602 were headache,; also recorded: emesis, diarrhea and abdominal bloating”. For the same compound, in the series with healthy volunteers (MSDC-0602 or MSDC-0602K), the “deaths, serious adverse events, severe adverse events or discontinuations due to adverse events” value is on record as “No deaths” and the “safety laboratory tests, vital signs, physical examination findings or electrocardiogram abnormalities considered clinically significant” value was “events were reported. Overall, it was determined that there were no”. Besides, in series [6] (LS-MPC2−/− mice, acute treatment), the “plasma ALT and liver injury gene expression in LS-MPC2−/− mice” value is “refractory to the beneficial effects”. In addition, the “plasma ALT concentrations” value in series [6] (WT mice, single dose (FIG. 3A)) is “decreased plasma ALT concentrations”. Besides, in series [6] (WT mice, single dose (FIG. 3B)), the “gene expression for hepatic stellate cell activation and fibrotic scar formation” value was “decreased gene expression”. In addition, the plasma insulin values entry in [6] (both WT and LS-MPC2−/− mice, single dose 30 mg/kg) is reported as “decreased”. In addition, the “glucose tolerance (GTT)” value in series [6] (obese LS-MPC2−/− mice, GTT 20 h after a single dose of 30 mg/kg) is given as “no improvement in glucose tolerance”. The “glucose tolerance (GTT)” value in [6] (obese WT mice, GTT 20 h after a single gavage of 30 mg/kg) was “improved glucose tolerance”. Besides, the half-life in series [10] was in the range of 11 to 17 h. The “binding to the MPC” value in series [8] was “maintain, and in some cases improve, binding to the MPC”.
